Molecules are shown by their SMILES.

For this assay, the target named is WT STING (Homo sapiens, UniProt Q86WV6, H232R). The assay is described as follows: Digitonin assay using 293T wtSTING-FL reporter cells. Set-up: host or cells: 293T (ATCC CRL-3216), stably transfected. The class given is cell-based. The note with it: 293T wtSTING-FL cells, digitonin buffer 30 min, then 5 h, ISRE firefly luciferase reporter. From the text: […] […] (SEQ ID NO:2) containing four interferon-sensitive response elements (ISRE) were synthesized by Sigma Aldrich (Czech Republic, Prague). The oligonucleotides were mixed in equal molar amounts, hybridized, and cleaved by restriction endonucleases HindIII (cat. #.R0104S, NEB, Ipswich, USA) and BglII (cat. #R0144S, NEB, Ipswich, USA). Ultimately, they were ligated into plasmid pGL4.27 (cat. #E6651, Promega, Madison, USA) linearized with the same enzymes. As result the sequence with four ISRE sites was placed upstream of the minimum promoter of firefly luciferase reporter gene.
WT STING, sequence (Q86WV6 whole entry H232R): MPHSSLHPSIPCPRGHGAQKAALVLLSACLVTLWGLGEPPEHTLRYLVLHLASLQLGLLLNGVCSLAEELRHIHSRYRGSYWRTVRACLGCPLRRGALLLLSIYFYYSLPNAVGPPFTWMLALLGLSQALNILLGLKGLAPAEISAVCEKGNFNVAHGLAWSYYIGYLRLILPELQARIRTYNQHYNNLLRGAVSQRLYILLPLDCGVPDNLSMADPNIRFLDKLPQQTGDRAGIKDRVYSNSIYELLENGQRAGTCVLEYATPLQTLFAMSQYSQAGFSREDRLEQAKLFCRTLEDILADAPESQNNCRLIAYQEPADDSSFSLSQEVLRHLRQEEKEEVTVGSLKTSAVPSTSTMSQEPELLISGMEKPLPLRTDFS
293T cells (cat. #CRL-3216, ATCC, Manassas, USA) were seeded a day before transfection at density 125,000 cells per cm^2 onto poly-D-lysine (cat. #P6407, Sigma Aldrich, Czech Republic) coated six well plates in antibiotic free DMEM with high glucose (cat. #D5796, Sigma Aldrich, Czech Republic) supplemented with 10% heat inactivated FBS (cat. #S1520, Biowest, Riverside, USA). On the day of transfection, 2.5 μg of the plasmid pUNO1-hSTING-WT (cat. #punol-hstingwt, InvivoGen, San Diego, USA,) encoding human wild type STING (WT STING) was diluted in 125 μL OptiMEM medium (cat. #31985062, ThermoFisher, Waltham, USA) and mixed with 125 μL of the same medium containing 12.5 μL of Lipofectamine 2000 (cat. #11668019, ThermoFisher, Waltham, USA). After 5 minutes incubation at room temperature (RT), 250 μL of the mixture was added dropwise to the cells in one well. Cells were incubated 36 hours at 37° C. with 5% CO2, and then detached with 0.05% Trypsin and 0.22 g/L EDTA (both cat. #L0941, Biowest, Riverside, USA).
Transfected cells were seeded onto poly-D-lysine coated six well plates at density 50,000 cells per 1 cm^2 in DMEM medium with high glucose containing 10% heat inactivated FBS, 30 μg/mL blasticidin (cat. #ant-b1-05, InvivoGen, San Diego, USA), 0.06 mg/ml Penicillin G and 0.1 mg/ml Streptomycin Sulfate (both cat. #. L0018, Biowest, Riverside, USA). The medium was replenished every 3-4 days until visible colonies of cells resistant to blasticidin were formed.
Blasticidin resistant cells stably expressing WT STING were further transfected with […] plasmid following the same procedure as described above. The transfected cells were selected for the resistance to 300 μg/mL hygromycin (cat. #. 10687010, ThermoFisher, Waltham, USA) in DMEM with high glucose containing 10% heat inactivated FBS, 30μg/mL blasticidin, 0.06 mg/ml Penicillin G and 0.1 mg/ml Streptomycin Sulfate. Homogeneous culture of stably double transfected cells was prepared by limiting dilution of cells in 96 well plates and wells with cells were selected that originated from a single cell. These cells were expanded, and expression of WT STING was confirmed by western blot using monoclonal mouse anti STING antibodies (cat. #. MAB7169, 1:1000 dilution; […]. Genomic DNA from the transfected cells was amplified with primers pUNO1_Seq_F ([…]) (SEQ ID NO:3) and pUNO1_Seq_R ([…]) (SEQ ID NO:4) that were complementary to pUNO1 plasmid and the presence of WT STING gene in the transfected cells was confirmed by DNA sequencing.
293T wtSTING-FL cells were seeded at density of 250,000 cells per cm^2 onto 96 well poly-D-lysine coated plates in 100 μl DMEM with high glucose supplemented with 10% heat inactivated FBS. The medium was removed next day and three fold serial dilutions of compounds in Digitonin buffer containing 50 mmol·l^−1 HEPES (cat. #H3375, Sigma Aldrich, Czech Republic) pH 7.0, 100 mmol·l^−1 KCl, 3 mmol·l^−1 MgCl2, 0.1 mmol.·l^−1 DTT (cat. #D0632, Sigma Aldrich, Czech Republic), 85 mmol·l^−1 Sucrose (cat. #S7903, Sigma Aldrich, Czech Republic), 0.2% BSA (cat. #A2153, Sigma Aldrich, Czech Republic), 1 mmol·l^−1 ATP (cat. #A1852, Sigma Aldrich, Czech Republic), 0.1 mmol·l^−1 GTP (cat. #G8877, Sigma Aldrich, Czech Republic), and 10 μg/mL Digitonin A (cat. #D141, Sigma Aldrich, Czech Republic) were added to the cells. […]
The compound `Nc1ncnc2c1ncn2[C@@H]1CO[C@@H]2COP(=O)(S)O[C@H]3[C@@H](F)[C@H](n4cnc5c(N)ncnc54)O[C@@H]3COP(=O)(S)O[C@@H]12` (stereo partly drawn) [Compound 54, (1S,6R,8R,9R,10R,15R,18R)-8,18-bis(6-amino-9H-purin-9-yl)-9-fluoro-3,12-disulfanyl-2,4,7,11,13,16-hexaoxa-3λ^5,12λ^5-diphosphatricyclo[13.3.0.0^6,10]octadecane-3,12-dione] returned a concentration giving a half-maximal response (EC50) of 0.01 µM.
To `Nc1nc2c(ncn2[C@@H]2CO[C@@H]3COP(=O)(O)O[C@H]4C[C@H](n5cnc6c(N)ncnc65)O[C@@H]4COP(=O)(O)O[C@@H]23)c(=O)[nH]1` [Compound 53, (1S,6R,8R,10S,15R,18R)-18-(2-amino-6-oxo-6,9-dihydro-1H-purin-9-yl)-8-(6-amino-9H-purin-9-yl)-3,12-dihydroxy-2,4,7,11,13,16-hexaoxa-3λ^5,12λ^5-diphosphatricyclo[13.3.0.0^6,10]octadecane-3,12-dione] belongs 0.28 µM; to `Nc1ncnc2c1ncn2[C@@H]1CO[C@@H]2COP(=O)(O)O[C@H]3C[C@H](n4cnc5c(N)ncnc54)O[C@@H]3COP(=O)(O)O[C@@H]12` [Compound 50, (1S,6R,8R,10S,15R,18R)-8,18-bis(6-amino-9H-purin-9-yl)-3,12-dihydroxy-2,4,7,11,13,16-hexaoxa-3λ^5,12λ^5-diphosphatricyclo[13.3.0.0^6,10]octadecane-3,12-dione], 0.28 µM.
With `Nc1nc2c(ncn2[C@@H]2CO[C@@H]3COP(=O)(O)O[C@H]4[C@H](n5cnc6c(N)ncnc65)CO[C@@H]4COP(=O)(O)O[C@@H]23)c(=O)[nH]1` [Compound 52, (1S,6R,9R,10S,15R,18R)-9-(2-amino-6-oxo-6,9-dihydro-1H-purin-9-yl)-18-(6-amino-9H-purin-9-yl)-3,12-dihydroxy-2,4,7,11,13,16-hexaoxa-3λ^5,12λ^5-diphosphatricyclo[13.3.0.0^6,10]octadecane-3,12-dione], the EC50 is 1.35 µM. Against the preceding compound, the EC50 is about 4.8-fold higher.
`Nc1ncnc2c1ncn2[C@@H]1CC[C@@H]2COP(=O)(O)O[C@H]3[C@@H](F)[C@H](n4cnc5c(N)ncnc54)O[C@@H]3COP(=O)(O)O[C@H]21` [Compound 34, (1R,6R,8R,9R,10R,15R,18R)-8,18-bis(6-amino-9H-purin-9-yl)-9-fluoro-3,12-dihydroxy-2,4,7,11,13-pentaoxa-3λ^5,12λ^5-diphosphatricyclo[13.3.0.0^6,10]octadecane-3,12-dione] registered an EC50 of 0.45 µM.
To `Nc1ncnc2c1ncn2[C@@H]1CO[C@@H]2COP(=O)(S)O[C@H]3[C@@H](F)[C@H](n4cnc5c(N)ncnc54)O[C@@H]3COP(=O)(S)O[C@@H]12` (stereo partly drawn) [Compound 55, (1S,6R,8R,9R,10R,15R,18R)-8,18-bis(6-amino-9H-purin-9-yl)-9-fluoro-3,12-disulfanyl-2,4,7,11,13,16-hexaoxa-3λ^5,12λ^5-diphosphatricyclo[13.3.0.0^6,10]octadecane-3,12-dione] belongs 0.01 µM; to `Nc1nc2c(ncn2[C@@H]2O[C@@H]3COP(=O)(O)O[C@H]4[C@H](n5cnc6c(N)ncnc65)CO[C@@H]4COP(=O)(O)O[C@H]3[C@H]2F)c(=O)[nH]1` [Compound 24, (1S,6R,8R,9R,10R,15R,18R)-8-(2-amino-6-oxo-6,9-dihydro-1H-purin-9-yl)-18-(6-amino-9H-purin-9-yl)-9-fluoro-3,12-dihydroxy-2,4,7,11,13,16-hexaoxa-3λ^5,12λ^5-diphosphatricyclo[13.3.0.0^6,10]octadecane-3,12-dione], 0.03 µM.
To `Nc1ncnc2c1ncn2[C@@H]1CO[C@@H]2COP(=O)(O)O[C@H]3[C@@H](F)[C@H](n4cnc5c(N)ncnc54)O[C@@H]3COP(=O)(O)O[C@@H]12` [Compound 28, (1S,6R,8R,9R,10R,15R,18R)-8,18-bis(6-amino-9H-purin-9-yl)-9-fluoro-3,12-dihydroxy-2,4,7,11,13,16-hexaoxa-3λ^5,12λ^5-diphosphatricyclo[13.3.0.0^6,10]octadecane-3,12-dione] belongs 0.02 µM; to `Nc1nc2c(ncn2[C@@H]2CO[C@@H]3COP(=O)(O)O[C@H]4[C@@H](F)[C@H](n5cnc6c(N)ncnc65)O[C@@H]4COP(=O)(O)O[C@@H]23)c(=O)[nH]1` [Compound 51, (1S,6R,8R,9R,10R,15R,18R)-18-(2-amino-6-oxo-6,9-dihydro-1H-purin-9-yl)-8-(6-amino-9H-purin-9-yl)-9-fluoro-3,12-dihydroxy-2,4,7,11,13,16-hexaoxa-3λ^5,12λ^5-diphosphatricyclo[13.3.0.0^6,10]octadecane-3,12-dione], 0.08 µM.
